Where “and” joins values, the source holds several entries; their conditions need not be identical. Equal entries are not always repeated.
How the values were obtained:
L-RANKL = molecular target: T1, L-RANKL (Rattus norvegicus, UniProt Q9ESE2, D175N); assay: STD NMR binding assay with L-RANKL; settings: 100 μM protein, 5 mM compound
T1 construct: (3) mRANKL (sRANKL-GSGS-sRANKL, rat 159-318 aa); His6-sumo (N); made in house; host or cells: Escherichia coli BL21 (DE3)
Procedure: For NMR studies, purified sRANKL or L-RANKL protein samples were buffer exchanged into PBS (Gbico, C10010500BT, pH7.4) using a Millipore spin column (1500 × g for 15 min at 4 °C, repeated six times, each time adding fresh PBS and discarding the flow-through). Protein concentration was determined using BCA method according to the procedure of Pierce^TM BCA Protein Assay Kit (Thermo Fisher Scientific). Compound S3-15 powder was dissolved in H2O as a concentration of 10 mM.
Protein saturation transfer difference (STD) experiments were performed on Bruker Avance III 500 (500 MHz) spectrometer (Columbia University) at 300 K using triple-resonance cryogenic probes optimized for proton detection. All experiments were performed using an independent sample for each experimental measurement as a 500 μL sample in NMR tubes with 100 μM protein and […] S3-15 in final concentration. Uniformly, for STD assay all samples were contained 50 μL protein, 200 μL S3-15 (10 mM in H2O), and 250 μL D2O; for S3-15 two-dimensional spectra reference, samples were 50 μL PBS, 200 μL S3-15 (10 mM in H2O) and 250 μL D2O.

[1] = test system: osteoclast markers (DC-stamp, Ctsk, MMP9, Tracp, Oscar, Calcr); assay: RT-qPCR of osteoclast marker genes in BMMs; assay type: cell-based, mouse
Procedure: The mRNA expression level of S3-15 was measured by RT–qPCR as primary described. Total cellular RNA sample was prepared using RNAiso Plus, followed by reverse transcription with PrimeScript™ MixRT Master Mix reverse transcriptase kit. Then quantitative real-time PCR assays were performed with TB Green™ premix EX Taq™ II kit on an Applied Biosystems. […] signaling inhibiting effect was determined by western blotting. RAW264.7 cells were treated with 5 μM S3-15 with or without sRANKL (100 ng/mL) for 5, 10, 30 and 60 min after starved for 1 h. Then the cells were washed with cold PBS and lysed by RIPA Lysis Buffer. Cell lysates were then processed for Western Blotting analyses. Primary antibody binding was detected using rat secondary antibodies (1:5000) coupled with enhanced chemiluminescence (ECL) reagents (Thermo Scientific) and visualized on Tanon 5200. Primers used for qPCR and antibodies used for western blotting were seen supplementary materials for details.

OVX mice [2] = assay: Mice peripheral blood T lymphocyte subsets analysis; assay type: in vivo, mouse; settings: OVX mice + S3-15 4 weeks, individual animals
Excerpt: In order to study the effect of S3-15 on the immune system, after 4 weeks of S3-15 treatment, orbital venous blood with EDTA-anticoagulated was collected for T lymphocyte subsets analysis in osteoporosis mice. We used flow cytometric to determinate T lymphocyte subsets according to the guidelines for Flow Cytometric of Beckman Coulter, FC500. Cells were stained according to manufacturer’s instruction of PE-Cyanine7 anti-Human CD8a and PE anti-Human CD4 antibodies (Tonbo Biosciences). Data analyzing was performed by using CXP software (Beckman Coulter, Supplementary Fig. 9).

OVX mice [3] = assay: Osteoporosis therapeutic study in OVX mice (micro-CT); assay type: in vivo, mouse; settings: S3-15 10 mg/kg/day 4 weeks, individual animals
Procedure: Female SD rats or C57BL/6 mice were cared until they grown up to 6 months old or 10 weeks old, respectively. Then we subjected them to either bilateral ovariectomy or sham operation after anesthesia with 10% chloral hydrate (0.3 mL/100 g). Then all the rats or mice were intramuscular injected of penicillin to prevent infection in the first week of surgery. For rat experiments, after 12 weeks of operation, 3 rats from sham-operated or ovariectomized groups were random selected to determine bone mass by micro-CT imaging biopsy to verify successful produced bone loss(data unshown). Then the OVX rats were individually administrated with S3-15, S3, and S3-05 orally with (10 mg/kg/day) for another 12 weeks. For mouse experiments, after 4 weeks of surgery, the OVX mice were treated with 10 mg/kg/day S3-15 for another 4 weeks.
The weight of rats or mice were recorded every week in the treatment period. After treatment, the rats were harvested, the serum, heart, liver, spleen, lung, kidney, thymus, and femurs were all collected and subjected to subsequent analysis. The right femurs of rats or mice were cleaned excess soft tissue, fixed in 10% formalin, and processed them for microcomputed tomography (micro-CT) analysis. Left mice femurs were collected and excarnate for biomechanical strength testing. Mice peripheral blood were as well as collected for flow cytometry analyzing.
The right femurs of rats or mice were further analyzed with micro-CT on Inveon PET/CT (Siemens, Germany). We used micro-CT to scan the femur from the femoral head to the femoral condyle, using 19 μm resolution, 80 kV 500uA, 360 projection, 3000-6000 image threshold, full rotation cone beam. Three-dimensional reconstruction and histomorphometric analyses of trabecular bone were conducted with the IAW (Inveon analysis workstation) analysis software. […] Trabecular bone parameters were measured including bone volume/tissue volume (BV/TV), bone surface area/bone volume (BS/BV), trabecular number (Tb.N), trabecular thickness (Tb.Th), trabecular separation(Tb.Sp) and trabecular pattern factor(Tb.P.F).

OVX mice [4] = assay: Histological examination of femur (TRAP staining); assay type: in vivo, mouse
Procedure: The mice left femur was fixed in paraformaldehyde for 72 h, demineralized using 10% Ethylenediamine tetra-acetic acid (EDTA-2Na) for 3 weeks, and then dehydrated with ethanol, clarified with xylene, and embedded with paraffin. Paraffin embedded tissue was sectioned on a rotary microtome. The sectioned tissues were stained with TRAP.

[5] = BMMs, 100 ng/mL sRANKL + S3-15, relative to vehicle
[6] = versus Vehicle, three replicates

T1 sequence (Q9ESE2 with tags, fused parts or gaps D175N): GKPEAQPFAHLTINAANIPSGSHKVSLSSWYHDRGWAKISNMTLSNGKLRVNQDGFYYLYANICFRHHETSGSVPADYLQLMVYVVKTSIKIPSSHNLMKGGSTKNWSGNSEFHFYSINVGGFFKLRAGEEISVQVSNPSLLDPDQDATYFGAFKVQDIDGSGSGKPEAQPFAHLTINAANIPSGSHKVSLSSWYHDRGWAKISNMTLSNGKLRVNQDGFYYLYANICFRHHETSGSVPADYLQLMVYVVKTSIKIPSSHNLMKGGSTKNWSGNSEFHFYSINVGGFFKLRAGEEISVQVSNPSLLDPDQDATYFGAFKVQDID

How did the “STD-NMR binding to L-RANKL (mRANKL)” value (L-RANKL) turn out when `CC(=O)/C(=N\Nc1ccccc1C(=O)O)C(=O)Nc1ccccn1` [S3-15] was run?
The value was “low binding affinity”.

And the “osteoclastogenesis related gene expression without RANKL” value ([1]; BMMs without RANKL)?
Its value is “cannot affect”.

And the “Calcr mRNA expression” value [1, 5]?
The value was 452.218 and 472.155 and 436.053.

And the “Ctsk mRNA expression” value [1, 5]?
Its value is 96.8459 and 61.7386 and 86.8018.

And the “DC-Stemp mRNA expression” value [1, 5]?
Its value is 112.451 and 102.455 and 155.105.

And the “MMP9 mRNA expression” value [1, 5]?
Its value is 167.711 and 113.637 and 211.945.

And the “Oscar mRNA expression” value [1, 5]?
The value was 160.036 and 111.839 and 197.432.

What about the “Tracp mRNA expression” value [1, 5] of the same compound?
The value was 180.942 and 181.792 and 170.309.

And the “Calcr relative expression (fig. S3i)” value [1, 6]?
Its value is 0.46 and 0.59 and 1.1.

And the “Ctsk relative expression (fig. S3i)” value [1, 6]?
The value was 1.05 and 0.94 and 2.17.

What about the “DC-Stamp relative expression (fig. S3i)” value [1, 6] of the same compound?
The value was 0.75 and 0.62 and 1.46.

What about the “MMP9 relative expression (fig. S3i)” value [1, 6] of the same compound?
The value was 1.19 and 1.06 and 1.03.

And the “Oscar relative expression (fig. S3i)” value [1, 6]?
The value was 0.54 and 0.76 and 2.12.

What about the “Tracp relative expression (fig. S3i)” value [1, 6] of the same compound?
Its value is 0.53 and 0.95 and 1.32.

And the “CD3+, % in peripheral lymphocyte” value (OVX mice [2])?
Its value is 36.27% and 37.35% and 37.5% and 36.96% and 36.85% and 38.5% and 35.97% and 34.6%.

What about the “CD3+CD4+, % in CD3+ T cell” value (OVX mice [2]) of the same compound?
Its value is 61.95% and 60.18% and 56.07% and 64.9% and 64.44% and 61.9% and 58.71% and 64.19%.

What about the “CD3+CD4+, % in peripheral lymphocyte” value (OVX mice [2]) of the same compound?
The value was 22.2% and 22.32% and 20.69% and 23.69% and 23.71% and 23.61% and 23.29% and 21.4%.

And the “CD3+CD8+, % in CD3+ T cell” value (OVX mice [2])?
The value was 30.94% and 33.61% and 35.99% and 30.67% and 29.41% and 32.61% and 35.04% and 29.24%.

And the “CD3+CD8+, % in peripheral lymphocyte” value (OVX mice [2])?
Its value is 11.41% and 12.7% and 13.52% and 11.4% and 10.94% and 12.69% and 10.21% and 10.64%.

What about the “CD4+, % in peripheral lymphocyte” value (OVX mice [2]) of the same compound?
The value was 22.3% and 22.29% and 20.64% and 23.66% and 23.37% and 23.65% and 23.23% and 21.42%.

What about the “CD8+, % in peripheral lymphocyte” value (OVX mice [2]) of the same compound?
Its value is 11.28% and 12.51% and 13.34% and 11.29% and 10.72% and 12.52% and 9.72% and 10.53%.

And the “CD4+/CD8+ in CD3+ T cell” value (OVX mice [2]; ratio)?
Its value is 2.002 and 1.791 and 1.558 and 2.116 and 2.191 and 1.898 and 1.676 and 2.195.

And the “CD4+/CD8+ in peripheral lymphocyte” value (OVX mice [2]; ratio)?
Its value is 1.946 and 1.757 and 1.53 and 2.078 (2×) and 2.167 and 1.861 and 2.011.

What about the BV/TV (OVX mice [3]) of the same compound?
Its BV/TV is 0.134 and 0.2459 and 0.2549 and 0.1314 and 0.1319 and 0.1667 and 0.09144 and 0.215.

What about the Tb.N (OVX mice [3]) of the same compound?
Its Tb.N is 3.01 1/mm and 5.848 1/mm and 5.596 1/mm and 2.742 1/mm and 2.832 1/mm and 3.86 1/mm and 1.833 1/mm and 4.649 1/mm.

And the Tb.Th (OVX mice [3])?
Its Tb.Th is 0.0445 mm and 0.04205 mm and 0.04556 mm and 0.04792 mm and 0.04659 mm and 0.04318 mm and 0.04987 mm and 0.04624 mm.

What about the “numbers of osteoclast, histology” value (OVX mice [4]) of the same compound?
The value was “significantly decreased the numbers of osteoclast”.

Source: paper PMC9468151, “Identification of a binding site on soluble RANKL that can be targeted to inhibit soluble RANK-RANKL interactions and treat osteoporosis” (Nature Communications, 2022)
